Experimental findings from patent US20120264735A1 (priority 2009, published 2012) are described below.

Structures are written as SMILES. A value given as a limit tells only on which side of the number the result lay.

The target of this test is T1, c-Met kinase (recombinant c-Met) (Homo sapiens, UniProt P08581).
T1 construct: 0.27 nM recombinant c-Met
T1 sequence (P08581 25-1390): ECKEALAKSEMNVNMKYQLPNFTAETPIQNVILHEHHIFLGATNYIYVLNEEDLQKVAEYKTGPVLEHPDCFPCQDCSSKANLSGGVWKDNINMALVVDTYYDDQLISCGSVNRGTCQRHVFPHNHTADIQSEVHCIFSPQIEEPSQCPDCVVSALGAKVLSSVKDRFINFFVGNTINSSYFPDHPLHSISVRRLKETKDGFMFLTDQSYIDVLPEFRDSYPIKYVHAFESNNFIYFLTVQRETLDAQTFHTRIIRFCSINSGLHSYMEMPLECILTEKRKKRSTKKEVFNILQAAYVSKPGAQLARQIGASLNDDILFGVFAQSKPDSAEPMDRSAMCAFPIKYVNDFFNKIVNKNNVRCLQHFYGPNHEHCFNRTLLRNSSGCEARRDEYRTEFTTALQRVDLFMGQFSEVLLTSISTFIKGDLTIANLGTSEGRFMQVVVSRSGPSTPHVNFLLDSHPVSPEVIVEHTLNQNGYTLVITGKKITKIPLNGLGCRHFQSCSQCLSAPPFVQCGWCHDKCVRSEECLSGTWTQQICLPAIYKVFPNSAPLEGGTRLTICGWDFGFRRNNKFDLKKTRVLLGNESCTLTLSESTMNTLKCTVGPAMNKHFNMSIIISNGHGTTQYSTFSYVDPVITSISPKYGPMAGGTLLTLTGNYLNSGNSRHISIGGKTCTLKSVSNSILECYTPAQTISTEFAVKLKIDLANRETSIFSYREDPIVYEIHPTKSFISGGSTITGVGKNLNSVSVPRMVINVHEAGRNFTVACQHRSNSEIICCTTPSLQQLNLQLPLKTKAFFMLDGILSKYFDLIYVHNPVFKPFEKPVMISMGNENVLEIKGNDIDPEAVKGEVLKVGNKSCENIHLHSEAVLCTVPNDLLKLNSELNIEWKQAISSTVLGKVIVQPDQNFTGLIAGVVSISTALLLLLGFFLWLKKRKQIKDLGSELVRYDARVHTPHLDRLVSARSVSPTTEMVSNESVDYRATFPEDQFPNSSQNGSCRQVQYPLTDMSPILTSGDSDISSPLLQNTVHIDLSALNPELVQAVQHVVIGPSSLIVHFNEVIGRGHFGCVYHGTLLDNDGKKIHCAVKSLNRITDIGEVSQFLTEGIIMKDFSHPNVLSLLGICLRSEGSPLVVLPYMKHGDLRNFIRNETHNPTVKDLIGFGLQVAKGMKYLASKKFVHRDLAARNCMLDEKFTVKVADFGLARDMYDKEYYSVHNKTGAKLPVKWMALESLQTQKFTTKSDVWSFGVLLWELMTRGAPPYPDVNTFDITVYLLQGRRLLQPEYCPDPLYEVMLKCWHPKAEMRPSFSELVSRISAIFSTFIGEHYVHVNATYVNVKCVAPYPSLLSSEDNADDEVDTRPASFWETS
Description: In vitro kinase assay I (homogeneous time-resolved fluorescence tyrosine kinase assay). The format is biochemical. Here is the method:
The kinase activities of c-Met are measured using a modified version of the homogeneous-time-resolved tyrosine kinase assay described by Park et al. (1999, Anal. Biochem. 269:94-104).
The procedure for determining the potency of a compound to inhibit c-Met kinase comprises the following steps: • 1. Prepare 3-fold serial diluted compound solutions in 100% dimethyl sulfoxide (DMSO) at 20× of the desired final concentrations in a 384-well plate. • 2. Prepare a master reaction mix containing 6.67 mM MgCl2, 133.3 mM NaCl, 66.7 mM Tris-HCl (pH 7.4), 0.13 mg/ml BSA, 2.67 mM dithiothreitol, 0.27 nM recombinant c-Met and 666.7 nM biotinylated synthetic peptide substrate (biotin-ahx-EQEDEPEGDYFEWLE-CONH2) (SEQ.ID.NO.:1). • 3. In a black assay plate, add 1.5 μl of compound solution (or DMSO) and 22.5 μl of master reaction mix per well. Initiate the kinase reaction by adding 6 μl of 0.25 mM MgATP per well. Allow the reactions to proceed for 60 min at room temperature. The final conditions for the reaction are 0.2 nM c-Met, 0.5 μM substrate, 50 μM MgATP, 5 mM MgCl2, 100 mM NaCl, 2 mM DTT, 0.1 mg/ml BSA, 50 mM Tris (pH 7.4) and 5% DMSO. • 4. Stop the kinase reaction with 30 μl of Stop/Detection buffer containing 10 mM EDTA, 25 mM HEPES, 0.1% TRITON X-100, 0.750 nM Eu-chelate labeled anti-phosphotyrosine antibody PY20 (cat. #AD0067, PerkinElmer) and 50 μg/ml Streptavidin-allophycocyanin conjugate (cat. #PJ25S, Prozyme). • 5. Read HTRF signals on a Victor reader (PerkinElmer) in HTRF mode after 60-min incubation at room temperature in the dark. • 6. IC50 is determined by fitting the observed relationship between compound concentration and HTRF signal with a 4-parameter logistic equation. II. GTL-16 pY1349 Cell-Based Assay
`Cn1cc(-n2ccc(=O)c(Cc3cccc(-c4ncc(OCC5CCOC(C)(C)C5)cn4)c3)n2)cn1` (racemic) [Example 269, rac-3-(3-{5-[(2,2-dimethyltetrahydro-2H-pyran-4-yl)methoxy]pyrimidin-2-yl}benzyl)-1-(1-methyl-1H-pyrazol-4-yl)pyridazin-4(1H)-one]: the IC50 (in general, the concentration needed to halve the response being measured) is < 0.1 µM.

As for `Cn1cc(-n2ccc(=O)c(Cc3cccc(NC(=O)OCC4CCCOC4)c3)n2)cn1` (racemic) [Example 569, rac-tetrahydro-2H-pyran-3-ylmethyl (3-{[1-(1-methyl-1H-pyrazol-4-yl)-4-oxo-1,4-dihydropyridazin-3-yl]methyl}phenyl)carbamate], the IC50 was < 0.1 µM.

`CC(C)COC(=O)Nc1cccc(Cc2nn(-c3cnn(CCCC(=O)N(C)C)c3)ccc2=O)c1` [Example 696, 2-Methylpropyl {3-[(1-{1-[4-(dimethylamino)-4-oxobutyl]-1H-pyrazol-4-yl}-4-oxo-1,4-dihydropyridazin-3-yl)methyl]phenyl}carbamate]: the IC50 was < 0.1 µM.

Consider `Cc1nc(-c2cccc(C(C)c3nn(-c4cnn(C)c4)ccc3=O)c2)ncc1F` (single isomer, unassigned) [Example 693, 3-{(1R or S)-1-[3-(5-fluoro-4-methylpyrimidin-2-yl)phenyl]ethyl}-1}-1-(1-methyl-1H-pyrazol-4-yl)pyridazin-4(1H)-one], for which the half-maximal inhibitory concentration (IC50) was in the range of 0.1 to 1 µM.

As to `Cn1cc(-n2ccc(=O)c(Cc3cccc(-c4nnn(C)n4)c3)n2)cn1` [Example 58, 1-(1-methyl-1H-pyrazol-4-yl)-3-[3-(2-methyl-2H-tetrazol-5-yl)benzyl]pyridazin-4(1H)-one], the IC50 lay in the range of 0.1 to 1 µM.

Consider `Cn1cc(-n2ccc(=O)c(Cc3cccc(-c4ncc(C(C)(C)O)cn4)c3)n2)cn1` [Example 167, 3-{3-[5-(1-hydroxy-1-methylethyl)pyrimidin-2-yl]benzyl}-1-(1-methyl-1H-pyrazol-4-yl)pyridazin-4(1H)-one], for which the IC50 is < 0.1 µM.

As to `CCOc1cnc(-c2cc(Cc3nn(-c4cnn(C)c4)ccc3=O)ccc2F)nc1` [Example 119, 3-[3-(5-ethoxypyrimidin-2-yl)-4-fluorobenzyl]-1-(1-methyl-1H-pyrazol-4-yl)pyridazin-4(1H)-one], the IC50 was in the range of 0.1 to 1 µM.

For `Cn1cc(-n2ccc(=O)c(Cc3cccc(NC(=O)OCC(F)(F)CN)c3)n2)cn1` [Example 614, 3-Amino-2,2-difluoropropyl (3-{[1-(1-methyl-1H-pyrazol-4-yl)-4-oxo-1,4-dihydropyridazin-3-yl]methyl}phenyl)carbamate], the IC50 was < 0.1 µM.

Turning to `Cn1cc(-n2ccc(=O)c(Cc3cccc(-c4ncn(CCC5CCOC5)n4)c3)n2)cn1` (racemic) [Example 717, rac-1-(1-methyl-1H-pyrazol-4-yl)-3-(3-{1-[2-(tetrahydrofuran-3-yl)ethyl]-1H-1,2,4-triazol-3-yl}benzyl)pyridazin-4(1H)-one], the IC50 was < 0.1 µM.

Consider `CCn1cc(-n2ccc(=O)c(C(C)c3cccc(-c4ncc(OCC5(F)CCN(C(=O)OC(C)(C)C)CC5)cn4)c3)n2)cn1` (single isomer, unassigned) [Example 290, tert-butyl 4-({[2-(3-{(1R or S)-1-[1-(1-ethyl-1H pyrazol-4-yl)-4-oxo-1,4-dihydropyridazin-3-yl]ethyl}phenyl)pyrimidin-5-yl]oxy}methyl)-4-fluoropiperidine-1-carboxylate], for which the IC50 is < 0.1 µM.

With `CC(c1cccc(-c2ncc(OC(C)C(C)(C)O)cn2)c1)c1nn(-c2cnn(C)c2)ccc1=O` (single isomer, unassigned) [Example 385, 3-{(1R or S)-1-[3-(5-{[(1R or S)-2-hydroxy-1,2-dimethylpropyl]oxy}pyrimidin-2-yl)phenyl]ethyl}-1-(1-methyl-1H-pyrazol-4-yl)pyridazin-4(1H)-one], the IC50 is < 0.1 µM.

`Cn1cc(-n2ccc(=O)c(Cc3cccc(-c4ncc([C@]5(F)CCNC[C@@H]5O)cn4)c3)n2)cn1` (racemic) [Example 749, rac-3-({3-[5-(trans-4-Fluoro-3-hydroxypiperidin-4-yl)pyrimidin-2-yl]benzyl}-1-(1-methyl-1H-pyrazol-4-yl)pyridazin-4(1H)-one]: the IC50 is < 0.1 µM.

As to `Cc1cc(COc2cnc(-c3cccc(Cc4nn(-c5cnn(C)c5)ccc4=O)c3)nc2)on1` [Example 286, 3-(3-{5-[(3-methylisoxazol-5-yl)methoxy]pyrimidin-2-yl}benzyl)-1-(1-methyl-1H-pyrazol-4-yl)pyridazin-4(1H)-one], the IC50 was < 0.1 µM.

On to `O=C(Nc1cccc(Cc2nn(-c3ccc(F)c(F)c3)ccc2=O)c1)OCCN1CCS(=O)(=O)CC1` [Example 528, 2-(1,1-dioxidothio-morpholin-4-yl)ethyl-(3-{[1-(3,4-difluorophenyl)-4-oxo-1,4-dihydropyridazin-3-yl]methyl}phenyl)carbamate], for which the IC50 is < 0.1 µM.

`Cn1cc(-n2ccc(=O)c(Cc3cccc(-c4ncc(C5=CCOC5)cn4)c3)n2)cn1` [Example 175, 3-{3-[5-(2,5-dihydrofuran-3-yl)pyrimidin-2-yl]benzyl}-1-(1-methyl-1H-pyrazol-4-yl)pyridazin-4(1H)-one]: the IC50 is < 0.1 µM.

On to `CC(C)COC(=O)Nc1cccc(Cc2nn(-c3cnn(CCCC(=O)NCC(C)(C)O)c3)ccc2=O)c1` [Example 705, 2-methylpropyl (3-{[1-(1-{4-[(2-hydroxy-2-methylpropyl)amino]-4-oxobutyl}-1H-pyrazol-4-yl)-4-oxo-1,4-dihydropyridazin-3-yl]methyl}phenyl) carbamate], for which the IC50 is < 0.1 µM.

Regarding `Cn1cc(-n2ccc(=O)c(Cc3cccc(-c4ncc(O[C@H]5CC[C@](C)(O)CC5)cn4)c3)n2)cn1` [Example 122, 3-(3-{5-[(trans-4-hydroxy-4-methylcyclohexyl)oxy]pyrimidin-2-yl}benzyl)-1-(1-methyl-1H-pyrazol-4-yl)pyridazin-4(1H)-one], the IC50 is < 0.1 µM.

Consider `CCn1cc(-n2ccc(=O)c(C(C)c3cccc(-c4ncc(COC)cn4)c3)n2)cn1` (single isomer, unassigned) [Example 218, 1-(1-ethyl-1H-pyrazol-4-yl)-3-((1R or S)-1-{3-[5-(methoxymethyl)pyrimidin-2-yl]phenyl}ethyl)pyridazin-4(1H)-one], for which the IC50 was < 0.1 µM.

As for `Cn1cc(-n2ccc(=O)c(Cc3cccc(-c4ncc(CN5CCC(N)CC5)cn4)c3)n2)cn1` [compound 434, 3-(3-{5-[(4-aminopiperidin-1-yl)methyl]pyrimidin-2-yl}benzyl)-1-(1-methyl-1H-pyrazol-4-yl)pyridazin-4(1H)-one], the IC50 is < 0.1 µM.

As to `COc1cnc(-c2cccc(Cc3nn(-c4cc(Cl)cc(C#N)c4)ccc3=O)c2)nc1` [Example 126, 3-chloro-5-{3-[3-(5-methoxypyrimidin-2-yl)benzyl]-4-oxopyridazin-1(4H)-yl}benzonitrile], the IC50 is < 0.1 µM.

Turning to `Cc1nccc(-c2cccc(Cc3nn(-c4cnn(C)c4)ccc3=O)c2)n1` [Example 40, 1-(1-methyl-1H-pyrazol-4-yl)-3-[3-(2-methylpyrimidin-4-yl)benzyl]pyridazin-4(1H)-one], the IC50 is 1 to 3 µM.

For the compound `CCOc1cnc(-c2cccc(Cc3nn(-c4cnn(C)c4)ccc3=O)c2)nc1C` [Example 177, 3-[3-(5-ethoxy-4-methylpyrimidin-2-yl)benzyl]-1-(1-methyl-1H-pyrazol-4-yl)pyridazin-4(1H)-one], the IC50 is < 0.1 µM.

As to `COCc1cnc(-c2cccc(C(C)c3nn(-c4cnn(C)c4)ccc3=O)c2)nc1` (single isomer, unassigned) [Example 220, 3-((1R or S)-1-{3-[5-(methoxymethyl)pyrimidin-2-yl]phenyl}ethyl)-1-(1-methyl-1H-pyrazol-4-yl)pyridazin-4(1H)-one], the IC50 is < 0.1 µM.

Regarding `CCn1cnc(-c2cccc(Cc3nn(-c4ccc(F)c(F)c4)ccc3=O)c2)n1` [Example 82, 1-(3,4-difluorophenyl)-3-[3-(1-ethyl-1H-1,2,4-triazol-3-yl)benzyl]pyridazin-4(1H)-one], the IC50 is < 0.1 µM.

`Cn1cc(-n2ccc(=O)c(Cc3cccc(-c4ncc(C5CCOC5)cn4)c3)n2)cn1` (racemic) [compound 199, rac-1-(1-methyl-1H-pyrazol-4-yl)-3-{3-[5-(tetrahydrofuran-3-yl)pyrimidin-2-yl]benzyl} pyridazin-4(1H)-one]: the IC50 was < 0.1 µM.

For `COCCOc1ccnc(-c2cccc(C(C)c3nn(-c4cnn(C)c4)ccc3=O)c2)n1` (racemic) [Example 679, rac-3-(1-{3-[4-(2-methoxyethoxy)pyrimidin-2-yl]phenyl}ethyl)-1-(1-methyl-1H-pyrazol-4-yl)pyridazin-4(1H)-one], the IC50 fell in the range of 0.1 to 1 µM.

Regarding `CCn1cc(-n2ccc(=O)c(Cc3cccc(-c4ncc(OCC5CCN(C)CC5)cn4)c3)n2)cn1` [Example 172, 1-(1-ethyl-1H-pyrazol-4-yl)-3-(3-{5-[(1-methylpiperidin-4-yl)methoxy]pyrimidin-2-yl}benzyl)pyridazin-4(1H)-one], the IC50 is < 0.1 µM.
